Tests used:
IRAK4 enzyme = molecular target: T1, IRAK4 enzyme (Homo sapiens, UniProt Q9NWZ3); assay: IRAK4 enzyme activity inhibition (ADP-Glo, Promega kit); assay type: biochemical; conditions: for inhibition at 0.1 µM: test compound 0.1 uM
T1 construct: purchased Promega V2621
T1 sequence (Q9NWZ3 1-460): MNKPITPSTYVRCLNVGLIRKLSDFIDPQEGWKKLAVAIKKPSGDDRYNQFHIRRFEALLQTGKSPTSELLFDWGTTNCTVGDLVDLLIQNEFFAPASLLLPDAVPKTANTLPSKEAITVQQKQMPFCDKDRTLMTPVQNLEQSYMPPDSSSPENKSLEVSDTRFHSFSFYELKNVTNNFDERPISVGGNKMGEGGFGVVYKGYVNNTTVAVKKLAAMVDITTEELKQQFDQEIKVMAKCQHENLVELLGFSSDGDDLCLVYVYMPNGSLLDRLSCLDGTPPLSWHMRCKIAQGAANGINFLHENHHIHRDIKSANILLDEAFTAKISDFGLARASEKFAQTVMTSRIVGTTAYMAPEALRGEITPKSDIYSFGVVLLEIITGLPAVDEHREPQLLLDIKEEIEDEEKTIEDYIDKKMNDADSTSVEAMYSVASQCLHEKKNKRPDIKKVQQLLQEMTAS
Summary of the method: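 IRAK4 with MBP/ATP mix (0.1 µg/µL MBP, 1.25 mM ATP before dilution) in 40 mM Tris-HCl pH 7.5, 20 mM MgCl2, BSA, DTT. Compounds were serially diluted from 1 mM and enzyme added at 5 ng/µL, then 60 min at 37°C. ADP-Glo luminescence read-out; IC50 by non-linear regression of % inhibition.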

IRAK1 enzyme = molecular target: T2, IRAK1 enzyme (Homo sapiens, UniProt P51617); assay: IRAK1 enzyme activity inhibition (ADP-Glo, Promega kit); assay type: biochemical; conditions: for inhibition at 0.1 µM: test compound 0.1 uM; for inhibition at 1 µM: test compound 1 uM
T2 construct: purchased Promega VA7477
Procedure: An experiment on IRAK1 enzyme activity inhibition of the compound of the present invention was conducted.
An IRAK1 enzyme kit (purchased from Promega, product number: VA7477) was used to dilute a mixed solution between 0.1 µg/µL of protein kinase B (AKT), which is an enzyme-reactive substrate, and 1.25 mM of ATP with a reaction buffer (40 mM Tris-HCl, pH 7.5; 20 mM MgCl2; 0.1 mg/mL BSA; 50 µM DTT) according to the instructions, so as to dispense 2 µL in a 384-well white plate, and then to add 1 µL of a test compound, which was gradient diluted starting from 1 mM, to a 384-well white plate. After that, an IRAK1 enzyme was diluted with a reaction buffer to a final concentration of 5 ng/µL, then 2 µL/well was dispensed into a 384-well white plate and reacted at 37°C for 60 minutes. After completion of a reaction, an ADP-GloTM enzyme test kit (purchased from Promega, product number: V9102) was used to add 5 µL of ADP-Glo reaction reagent and cause a reaction at 37°C for 40 minutes, and then 10 µL of enzyme chromogenic reagent was added again to measure a luminescence signal using equipment for measuring absorbance (THECAN, Microplate Reader). An activity inhibition rate was calculated from a measured value, and a 50% inhibition concentration (IC50 value) was analyzed through a non-linear regression analysis based on the % inhibition for each concentration of the test compound, and is shown in Table 3.

hPBMC TNFα = assay: Cell-based inflammatory cytokine secretion inhibition (LPS-stimulated PBMC, hTNF-α ELISA); conditions: human PBMC, LPS 1 µg/mL, hTNF-α by ELISA, mean; read-out: hPBMC TNFα IC50_mean
Procedure: An experiment on inflammatory cytokine secretion inhibition of the compound of the present invention was conducted.
PBMC (LONZA, peripheral blood mononuclear cells) isolated from human whole blood was dispensed into a 96-well plate at a density of 1.0 X 10^5 cells/well, and the cells were stabilized for 20 hours. After that, a test compound diluted at each of four concentrations was added to a Roswell Park Memorial Institute (RPMI) medium, reacted for one hour, treated with lipopolysaccharide (LPS) to reach a final concentration of 1 µg/mL, and further reacted for one hour. hTNF-α, which is an inflammatory cytokine, was measured by an enzyme linked immunosorbent assay using an ELISA kit from Goma Biotech. A cell supernatant, a standard drug, and an antibody were added to an ELISA-plate and reacted for four hours in total, after which the plate was washed, reacted with streptavidin-HRP for 30 minutes, and washed again. After that, a TMB substrate was added and reacted in a dark place, and when a color was sufficiently developed, a stop solution was added to stop the reaction. hTNF-α was measured by measuring absorbance at 450 nm using equipment for absorption measurement (Microplate Reader from BioTeK). An activity inhibition rate was calculated from a measured absorbance value, a % inhibition for each concentration of the test compound was calculated, a 50% inhibition concentration (IC50 value) was analyzed through a non-linear regression analysis, and the results are shown in Table 4.

T2 sequence (P51617 whole entry): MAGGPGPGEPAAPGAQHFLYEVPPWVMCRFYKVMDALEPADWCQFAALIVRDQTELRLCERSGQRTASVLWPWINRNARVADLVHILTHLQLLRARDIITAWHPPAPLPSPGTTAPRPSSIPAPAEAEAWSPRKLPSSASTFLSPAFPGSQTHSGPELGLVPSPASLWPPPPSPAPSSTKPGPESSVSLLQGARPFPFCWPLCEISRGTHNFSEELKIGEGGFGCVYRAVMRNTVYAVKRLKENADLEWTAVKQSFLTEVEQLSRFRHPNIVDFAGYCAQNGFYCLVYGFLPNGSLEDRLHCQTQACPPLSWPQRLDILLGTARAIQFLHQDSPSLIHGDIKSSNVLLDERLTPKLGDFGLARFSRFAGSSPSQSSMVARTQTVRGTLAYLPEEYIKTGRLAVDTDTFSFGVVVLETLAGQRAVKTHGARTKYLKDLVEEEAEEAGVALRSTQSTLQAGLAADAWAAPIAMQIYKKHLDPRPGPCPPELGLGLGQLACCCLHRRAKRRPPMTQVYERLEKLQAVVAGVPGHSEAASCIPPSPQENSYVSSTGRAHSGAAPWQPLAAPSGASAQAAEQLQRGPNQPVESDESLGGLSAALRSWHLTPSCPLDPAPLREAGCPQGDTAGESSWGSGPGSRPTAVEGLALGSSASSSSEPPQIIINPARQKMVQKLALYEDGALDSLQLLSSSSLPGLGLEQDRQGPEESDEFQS

| IC50 (IRAK4 enzyme) | inhibition at 0.1 µM (IRAK4 enzyme) | inhibition at 0.1 µM (IRAK1 enzyme) | inhibition at 1 µM (IRAK1 enzyme) | IC50 (hPBMC TNFα) | Compound |
| --- | --- | --- | --- | --- | --- |
| 10.5 nM | 88% | 26% | 45.3% | 601 nM | CC(C)(O)CCn1cc2cc(NC(=O)c3ccc(N)c([N+](=O)[O-])c3)c(N3CCOCC3)cc2n1 [Example 23, 4-amino-N-(2-(3-hydroxy-3-methylbutyl)-6-morpholino-2H-indazol-5-yl)-3-nitrobenzamide] |
| 0.88 nM | 93.3% | 54.2% |  | 20.4 nM | CC(C)(O)CCn1cc2cc(NC(=O)c3cccc(S(N)(=O)=O)c3)c(N3CCC(C(C)(C)O)CC3)cc2n1 [Example 29, N-(2-(3-hydroxy-3-methylbutyl)-6-(4-(2-hydroxypropan-2-yl)piperidin-1-yl)-2H-indazol-5-yl)-3-sulfamoylbenzamide] |
| 2 nM | 87.1% | 17.5% | 52% | 113 nM | CC(C)(O)CCn1cc2cc(NC(=O)c3cccc([N+](=O)[O-])c3)c(N3CCC(O)CC3)cc2n1 [Example 32, N-(2-(3-hydroxy-3-methylbutyl)-6-(4-hydroxypiperidin-1-yl)-2H-indazol-5-yl)-3-nitrobenzamide] |
